From US20240101551A1, “CRYSTAL FORM AND SALT FORM OF BROMINE DOMAIN PROTEIN INHIBITOR AND PREPARATION METHOD THEREFOR” (CHIA TAI TIANQING PHARMACEUTICAL GROUP CO., LTD., priority 2020, published 2024)
Values joined by “and” are separate entries in the source; they are usually repeats but may differ in a detail not shown here. Equal entries are not always repeated.

What was measured:
Format in all cases: physicochemical
[1] = Particle size distribution test after jet milling (light scattering); conditions: for X90 Mean: mean of 3 experiments; for X90: single experiments 1-3
Method: The particle size distribution X90 described herein is determined by a light scattering method (Method 3 of Determination of Particle Size and Distribution of General Chapter 0982, Chinese Pharmacopoeia, Volume IV, 2020 Edition).
After jet milling, the crystal form I was tested for the particle size distribution by referring to Method 3 (a light scattering method) of Determination of Particle Size and Distribution of General Chapter 0982, Chinese Pharmacopoeia, Volume IV, 2020 Edition, with the specific steps as follows: 10 mg of the sample was weighed and placed in a laser scattering particle size distribution analyzer for testing (trigger conditions: 10 s, 1%; dispersion pressure: 2.0 bar).

[2] = Study on accelerated stability and long-term stability of the crystal form I
Method: The crystal form I was placed under the accelerated condition (40±2° C., 75%±5% RH, and packaged) for 1, 2, 3 and 6 months, and under the long-term condition (25±2° C., 65%±5% RH, and packaged) for 3, 6, 9, 12, 18, 24 and 36 months to investigate its acceleration and long-term stability. The inner packaging material of the packaged sample was a double-layer low-density polyethylene bag, and the outer packaging material is a polyester/aluminum/polyethylene composite bag for medicine packaging. The samples after the storage were determined for properties, related substances (HPLC), crystal form (XRD), water content and content to investigate the stability of the product.

[3] = Study on stability of the crystal form I under influencing factors (Experimental Example 2)
Method: In order to evaluate the solid stability of the crystal form I of the present application, the stability of the crystal form I under influencing factors (high temperature, high humidity and light) was investigated. The crystal form I was stored under the high temperature condition (40° C., open (weighing bottle)), the high temperature condition (60° C., open (weighing bottle)), the high humidity condition (room temperature, 75% RH, open (weighing bottle)) and the high humidity condition (room temperature, 92.5% RH, open (weighing bottle) and packaged) for 5 days, 10 days and 30 days, and under the ICH light condition (5500 Lux, 0.9 w/m^2, open (weighing bottle) and packaged) for 5 days and 10 days. The inner packaging material of the packaged sample was a double-layer low-density polyethylene bag, and the outer packaging material is a polyester/aluminum/polyethylene composite bag for medicine packaging. The samples after the storage were determined for properties, related substances (HPLC), crystal form (XRD), water content and content to investigate the influence of high temperature, high humidity and light conditions on the product. The results are shown in Table 13 (“^#” indicates the ICH condition).

[4] = Study on accelerated stability and long-term stability of the crystal form I; conditions: long-term, 25° C. ± 2° C., 60% ± 5% RH, packaged
[5] = accelerated, 40° C. ± 2° C., 75% ± 5% RH, packaged, 1 month
[6] = accelerated, 40° C. ± 2° C., 75% ± 5% RH, packaged, 2 months
[7] = accelerated, 40° C. ± 2° C., 75% ± 5% RH, packaged, 3 months
[8] = accelerated, 40° C. ± 2° C., 75% ± 5% RH, packaged, 6 months
[9] = long-term, 25° C. ± 2° C., 60% ± 5% RH, packaged, 6 months
[10] = 75% RH, room temperature, open, 5 days
[11] = 75% RH, room temperature, open, 10 days
[12] = 75% RH, room temperature, open, 30 days
[13] = 92.5% RH, room temperature, open, 5 days
[14] = 92.5% RH, room temperature, open, 10 days
[15] = 92.5% RH, room temperature, open, 30 days
[16] = Light (ICH, 5500 Lux), open, 5 days
[17] = Light (ICH, 5500 Lux), open, 10 days

In the case of `Cn1cc(-c2nc(N=S(C)(C)=O)ccc2Oc2ccc(F)cc2F)c2cc[nH]c2c1=O` [crystal form I], the “X90 Mean” value ([1]; milling pressure 0.1 MPa) is reported as 11.50 μm, the X90 ([1]; milling pressure 0.1 MPa) is reported as 11.54 μm and 11.46 μm and 11.50 μm and the “X90 Mean” value ([1]; milling pressure 0.3 MPa) is reported as 5.82 μm. For the same molecule, the X90 ([1]; milling pressure 0.3 MPa) was 5.78 μm and 6.02 μm and 5.67 μm, the Crystal form change [2, 5] was “Unchanged” and the Impurity content [2, 5] was 0.08%. For the same molecule, the Water content [2, 5] was 0.03%, the Crystal form change [2, 6] was “Unchanged” and the Impurity content [2, 6] was 0.08%. The Water content [2, 6] was 0.03%, the Crystal form change [2, 7] was “Unchanged” and the Impurity content [2, 7] was 0.08%. For the same molecule, the Water content [2, 7] was 0.03%, the Crystal form change [2, 8] was “Unchanged” and the Impurity content [2, 8] was 0.08%. For the same molecule, the Water content [2, 8] was 0.03%, the “Stability (conclusion)” value ([2]; influencing factors, accelerated and long-term conditions) was “good stability” and the Crystal form change ([2]; long-term, 25° C. ± 2° C., 60% ± 5% RH, packaged, 3 months) was “Unchanged”. For the same molecule, the Crystal form change [2, 9] was “Unchanged”, the Impurity content [2, 9] was 0.08% and the Impurity content ([2]; starting crystal form I) was 0.05%. The Water content ([2]; starting crystal form I) was 0.02%, the Crystal form change ([3]; 40° C., open, 5 days) was “Unchanged” and the Impurity content ([3]; 40° C., open, 5 days) was 0.06%. The Water content ([3]; 40° C., open, 5 days) was 0.02%, the Crystal form change ([3]; 40° C., open, 10 days) was “Unchanged” and the Impurity content ([3]; 40° C., open, 10 days) was 0.08%. The Water content ([3]; 40° C., open, 10 days) was 0.01%, the Crystal form change ([3]; 40° C., open, 30 days) was “Unchanged” and the Impurity content ([3]; 40° C., open, 30 days) was 0.08%. For the same molecule, the Water content ([3]; 40° C., open, 30 days) was 0.02%, the Crystal form change ([3]; 60° C., open, 5 days) was “Unchanged” and the Impurity content ([3]; 60° C., open, 5 days) was 0.07%. For the same molecule, the Water content ([3]; 60° C., open, 5 days) was 0.01%, the Crystal form change ([3]; 60° C., open, 10 days) was “Unchanged” and the Impurity content ([3]; 60° C., open, 10 days) was 0.08%. The Water content ([3]; 60° C., open, 10 days) was 0.01%, the Crystal form change ([3]; 60° C., open, 30 days) was “Unchanged” and the Impurity content ([3]; 60° C., open, 30 days) was 0.09%. For the same molecule, the Water content ([3]; 60° C., open, 30 days) was 0.02%, the Crystal form change [3, 10] was “Unchanged” and the Impurity content [3, 10] was 0.06%. For the same molecule, the Water content [3, 10] was 0.02%, the Crystal form change [3, 11] was “Unchanged” and the Impurity content [3, 11] was 0.08%. For the same molecule, the Water content [3, 11] was 0.03%, the Crystal form change [3, 12] was “Unchanged” and the Impurity content [3, 12] was 0.08%. For the same molecule, the Water content [3, 12] was 0.04%, the Crystal form change ([3]; 92.5% RH, packaged, 5 days) was “Unchanged” and the Impurity content ([3]; 92.5% RH, packaged, 5 days) was 0.06%. The Water content ([3]; 92.5% RH, packaged, 5 days) was 0.02%, the Crystal form change ([3]; 92.5% RH, packaged, 10 days) was “Unchanged” and the Impurity content ([3]; 92.5% RH, packaged, 10 days) was 0.08%. The Water content ([3]; 92.5% RH, packaged, 10 days) was 0.01%, the Crystal form change ([3]; 92.5% RH, packaged, 30 days) was “Unchanged” and the Impurity content ([3]; 92.5% RH, packaged, 30 days) was 0.08%. For the same molecule, the Water content ([3]; 92.5% RH, packaged, 30 days) was 0.03%, the Crystal form change [3, 13] was “Unchanged” and the Impurity content [3, 13] was 0.06%. For the same molecule, the Water content [3, 13] was 0.03%, the Crystal form change [3, 14] was “Unchanged” and the Impurity content [3, 14] was 0.08%. The Water content [3, 14] was 0.03%, the Crystal form change [3, 15] was “Unchanged” and the Impurity content [3, 15] was 0.08%. For the same molecule, the Water content [3, 15] was 0.06%, the Crystal form change ([3]; Light (ICH), packaged, 5 days) was “Unchanged” and the Impurity content ([3]; Light (ICH), packaged, 5 days) was 0.06%. For the same molecule, the Water content ([3]; Light (ICH), packaged, 5 days) was 0.02%, the Crystal form change ([3]; Light (ICH), packaged, 10 days) was “Unchanged” and the Impurity content ([3]; Light (ICH), packaged, 10 days) was 0.08%. The Water content ([3]; Light (ICH), packaged, 10 days) was 0.02%, the Crystal form change [3, 16] was “Unchanged” and the Impurity content [3, 16] was 0.06%. The Water content [3, 16] was 0.01%, the Crystal form change [3, 17] was “Unchanged” and the Impurity content [3, 17] was 0.08%. For the same molecule, the Water content [3, 17] was 0.02%, the Impurity content ([3]; starting crystal form I) was 0.05% and the Water content ([3]; starting crystal form I) was 0.02%. For the same molecule, the Impurity content ([4]; 3 months) was 0.08%, the Water content ([4]; 3 months) was 0.03% and the Water content ([4]; 6 months) was 0.04%.
